Results published in patent publication US20230286973A1, “PROTEIN SECRETION INHIBITORS” (KEZAR LIFE SCIENCES, priority 2020, published 2023).
Values joined by “and” are separate entries in the source; they are usually repeats but may differ in a detail not shown here. Identical values can stand only once.

What was measured:
[1] = system: PD1-ss+10aa/Gaussia Luciferase; assay: Dox-Induced PD1-ss-Gluc Assay; format: cell-based; conditions: 24 hr Dox induction; 293FRT/TO cells; read-out: 24 hr Dox Inducible PD1ssGluc 293FRT/TO: Mean IC50
How it was run: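 The cell line was made by transfecting Flp-In 293 T-REx cells with a PD1 signal sequence+10aa–Gaussia luciferase fusion under T-REx control and selecting with hygromycin and blasticidin. Cells were seeded, and next day compound plus doxycycline was added at 37 °C, 5% CO2.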

[2] = system: TNFα-FL/Gaussia Luciferase; assay: Dox Induced TNFα-FL-Gluc Assay; format: cell-based; conditions: for IC50: 24 hr Dox induction, 293FRT/TO cells, read-out: 24 hr Dox Inducible TNFaFLGluc 293FRT/TO: Mean IC50; for 24 hr Dox Inducible TNFaFLGluc 293FRT/TO: TNF/PD1: ratio of TNFaFLGluc IC50 to PD1ssGluc IC50
How it was run: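 Stereoisomer mixtures were tested where stereochemistry is not drawn. Induction used doxycycline added together with compound dilutions in DMSO/media to Flp-In 293 T-REx cells carrying a T-REx-regulated TNFα (aa 1-233)-Gaussia luciferase construct, then incubated at 37 °C, 5% CO2.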

[3] = system: HER3-ss+4aa/Gaussia Luciferase; assay: Dox-Induced Her3-ss-Gluc Assay; format: cell-based; conditions: 24 hr Dox induction; 293FRT/TO cells; read-out: 24 hr Dox Inducible Her3(ss + 4)Gluc 293FRT/TO: Mean IC50
How it was run: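 Cells were seeded a day ahead, then given compound diluted in DMSO/media with doxycycline to induce expression of the HER3 signal sequence (+4 aa)–Gaussia luciferase fusion. Incubation was at 37° C., 5% CO2, in a stable Flp-In 293 T-REx line.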

[4] = system: IL-2-FL/Gaussia Luciferase; assay: Dox Induced IL2-FL-Gluc Assay; format: cell-based; conditions: for IC50: 24 hr Dox induction, 293FRT/TO cells, read-out: 24 hr Dox Inducible IL2FLGluc 293FRT/TO: Mean IC50; for 24 hr Dox Inducible IL2FLGluc 293FRT/TO: IL2/PD1: ratio of IL2FLGluc IC50 to PD1ssGluc IC50
How it was run: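 Cells are plated one day ahead, then receive compound dilutions in DMSO/media with doxycycline and incubate at 37° C, 5% CO2. They are Flp-In 293 T-REx cells expressing a full-length IL-2 (amino acids 1-153)–Gaussia luciferase fusion under T-REx control.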

[5] = system: multiple myeloma cell line NCI-H929; assay: H929 Cell Viability Assay; format: cell-based, human; conditions: Homo sapiens, NCI-H929, 48 h, NCI-H929 cells, Celltiter-Glo
How it was run: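 Luminescent ATP detection (CellTiter-Glo) after 48 hours of compound exposure measures viability. Cells were plated in RPMI 1640 containing 10% fetal bovine serum and kept at 37° C under 5% CO2.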

[6] = system: multiple myeloma cell line U266B1; assay: U266 Cell Viability Assay; format: cell-based, human; conditions: Homo sapiens, U-266, 48 h, U266B1 cells, Celltiter-Glo
How it was run: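 Steps: culture in RPMI 1640 plus 10% FBS and 2 mM glutamine; plate and add compound dilutions; incubate 48 hours at 37° C., 5% CO2; add CellTiter-Glo and quantify luciferase signal.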

[7] = Liver Microsome Stability Assay (rat); conditions: rat liver microsomes, with NADPH, 1.0 uM compound
Description: (§1) Stability of a compound was assessed in the presence of liver microsomes from various sources—mouse, rat, monkey and human liver microsomes. 1.0 uM compound, 0.4% DMSO in 0.1 M Potassium Phosphate with 1.0 mg/mL liver microsomes, were incubated at 37° C. with or without 1 mM NADPH. The samples were quenched at 0, and 30 minutes.

[8] = Liver Microsome Stability Assay (mouse); conditions: mouse liver microsomes, with NADPH, 1.0 uM compound
Description: as §1

[9] = Liver Microsome Stability Assay (human); conditions: human liver microsomes, with NADPH, 1.0 uM compound
Description: as §1

[10] = Liver Microsome Stability Assay (monkey); conditions: monkey liver microsomes, with NADPH, 1.0 uM compound
Description: as §1

Row | SMILES | IC50 [1] | IC50 [2] | 24 hr Dox Inducible TNFaFLGluc 293FRT/TO: TNF/PD1 [2] | IC50 [3] | IC50 [4] | 24 hr Dox Inducible IL2FLGluc 293FRT/TO: IL2/PD1 [4] | EC50 [5] | EC50 [6] | Liver Microsome Stability (Multiple Species): Rat - % Remaining after 30 min w/NADPH [7] | Liver Microsome Stability (Multiple Species): Mouse - % Remaining after 30 min w/NADPH [8] | Liver Microsome Stability (Multiple Species): Human - % Remaining after 30 min w/NADPH [9] | Liver Microsome Stability (Multiple Species): Monkey - % Remaining after 30 min w/NADPH [10]
1 | CC(C)c1cccc2nc(/C=C/c3csc(NC(=O)c4cccn4Cc4ccncc4)n3)cn12 [Compound B76, (E)-N-(4-(2-(5-isopropylimidazo[1,2-a]pyridin-2-yl)vinyl)thiazol-2-yl)-1-(pyridin-4-ylmethyl)-1H-pyrrole-2-carboxamide] | 0.419 µM | > 25 µM | >59.6 | 1.6 µM | > 25 µM | >60 | > 25 µM | > 25 µM | 0.52% | 0.37% | 0.76% | 0.25%
2 | Cc1cccc2nc(/C=C/c3csc(NC(=O)c4cccn4Cc4ccncc4)n3)cn12 [Compound B77, (E)-N-(4-(2-(5-methylimidazo[1,2-a]pyridin-2-yl)vinyl)thiazol-2-yl)-1-(pyridin-4-ylmethyl)-1H-pyrrole-2-carboxamide] | 0.491 µM | > 25 µM | >50.9 | 11.5 µM | > 25 µM | >51 | > 25 µM | > 25 µM | 1.67% | 2.21% | 1.11% | 0.59%
3 | CC(C)c1c(/C=C/c2csc(NC(=O)c3cccn3Cc3ccnc(F)c3)n2)ncn1C [Compound B81, (E)-1-((2-fluoropyridin-4-yl)methyl)-N-(4-(2-(5-isopropyl-1-methyl-1H-imidazol-4-yl)vinyl)thiazol-2-yl)-1H-pyrrole-2-carboxamide] | 0.228 µM | > 25 µM | >109 | 15.6 µM | > 25 µM | >110 | 16.9 µM | > 25 µM | 9.66% | 11.7% | 0.58% | 0.06%
4 | Cc1cn(C(C)C)nc1/C=C/c1csc(NC(=O)c2cccn2Cc2ccnc(F)c2)n1 [Compound B83, (E)-1-((2-fluoropyridin-4-yl)methyl)-N-(4-(2-(1-isopropyl-4-methyl-1H-pyrazol-3-yl)vinyl)thiazol-2-yl)-1H-pyrrole-2-carboxamide] | 0.32 µM | 11.7 µM | 36.6 | 1.96 µM | 3.23 µM | 10 | 11.3 µM | 15.3 µM | 6.87% and 5.01% | 11.1% and 10.1% | 2.94% and 2.65% | 0.25% and 0.24%
5 | CC(C)c1c(/C=C/c2csc(NC(=O)c3cccn3Cc3ccncc3)n2)ncn1C [Compound B85, (E)-N-(4-(2-(5-isopropyl-1-methyl-1H-imidazol-4-yl)vinyl)thiazol-2-yl)-1-(pyridin-4-ylmethyl)-1H-pyrrole-2-carboxamide] | 0.329 µM | > 25 µM | >75.9 | > 25 µM | > 25 µM | >76 | > 25 µM | > 25 µM | 2.02% | 0.8% | 1.26% | 0.13%
6 | O=C(Nc1nc(/C=C/c2ncn3c2CCCC3)cs1)c1cccn1Cc1ccnc(F)c1 [Compound B86, (E)-1-((2-fluoropyridin-4-yl)methyl)-N-(4-(2-(5,6,7,8-tetrahydroimidazo[1,5-a]pyridin-1-yl)vinyl)thiazol-2-yl)-1H-pyrrole-2-carboxamide] | 0.104 µM | > 25 µM | >239 | 23.2 µM | > 25 µM | >240 | 16.5 µM | 16.7 µM | 17% | 12.5% | 0.27% | 0.11%
7 | CC(C)c1ccc(/C=C/c2csc(NC(=O)c3cccn3Cc3cc(F)nc(F)c3)n2)nc1 [Compound B87, (E)-1-((2,6-difluoropyridin-4-yl)methyl)-N-(4-(2-(5-isopropylpyridin-2-yl)vinyl)thiazol-2-yl)-1H-pyrrole-2-carboxamide] | 0.132 µM | > 25 µM | >189 | > 25 µM | > 25 µM | >190 | 9.92 µM | 14.1 µM | 0.18% | 1.23% | 0.15% | 0.04%
8 | Cc1cc(/C=C/c2csc(NC(=O)c3cccn3Cc3ccnc(F)c3)n2)no1 [Compound B88, (E)-1-((2-fluoropyridin-4-yl)methyl)-N-(4-(2-(5-methylisoxazol-3-yl)vinyl)thiazol-2-yl)-1H-pyrrole-2-carboxamide] | 0.625 µM | > 25 µM | >40.0 | > 25 µM | > 25 µM | >40 | > 25 µM | > 25 µM | 2.29% | 3.15% | 15.6% | 15.2%
